Experimental data from patent US10653672B2, “Myogenesis promotor, muscle atrophy inhibitor, medical composition and TAZ activator” (National University Corporation Tokyo Medical and Dental …, priority 2014, dated 2020).

System: C2C12 cells
Test: Evaluation of myogenesis of C2C12 cells by fusion index
Assay type: cell-based, mouse
Details: differentiation condition 72 hours, DMSO as 1, average of three
Protocol: (1) C2C12 cells were grown to confluence under growth condition, and then in differentiation condition for 72 hours, in a culture medium added with DMSO, IBS008738 (exemplary compound 1) or exemplary compounds 2 to 44, at a concentration of 1 μM, 3 μM or 10 μM, respectively. Thereafter, the degree of myogenesis was evaluated by a fusion index (a value obtained by dividing the number of nuclei detected in multinucleated myosin heavy chain (MHC)-positive cells by the total number of the nuclei). Specifically, exemplary compounds were divided into five groups, and DMSO and IBS008738 were evaluated in each group as controls. The evaluation was conducted three times, and the average value and the standard deviation of the fusion index was relativized with the measured value of DMSO as 1.
C2C12 cells were passaged in a growth medium (DMEM containing 10% FBS) and differentiated in a differentiation medium (DMEM containing 2% horse serum (Invitrogen)).

COc1ccc(-n2cnc(/N=C/N3CCOCC3)c2C(=O)c2ccccc2)cc1 [exemplary compound 15]
relative fusion index (FI) (Group 2, 1 μM): 1.20 | relative fusion index (FI) (Group 2, 3 μM): 1.58 | relative fusion index (FI) (Group 2, 10 μM): 1.58

Cc1ccc(-n2cnc(N)c2C(=O)c2ccc(F)cc2)cc1 [exemplary compound 34]
relative fusion index (FI) (Group 4, 1 μM): 1.38 | relative fusion index (FI) (Group 4, 3 μM): 1.33 | relative fusion index (FI) (Group 4, 10 μM): 1.49

N#CCc1ccc(-n2cnc(N)c2C(=O)c2ccccc2)cc1 [exemplary compound 29]
relative fusion index (FI) (Group 4, 1 μM): 1.25 | relative fusion index (FI) (Group 4, 3 μM): 1.49 | relative fusion index (FI) (Group 4, 10 μM): 1.61

COc1ccc(C(=O)c2c(N)ncn2-c2ccc(C)cc2)cc1 [exemplary compound 30]
relative fusion index (FI) (Group 4, 1 μM): 1.27 | relative fusion index (FI) (Group 4, 3 μM): 1.52 | relative fusion index (FI) (Group 4, 10 μM): 1.54

CCOC(=O)c1c(/N=C/N(C)C)ncn1-c1ccc(C)cc1 [exemplary compound 8]
relative fusion index (FI) (Group 1, 1 μM): 0.93 | relative fusion index (FI) (Group 1, 3 μM): 1.53 | relative fusion index (FI) (Group 1, 10 μM): 1.05

Nc1ncn(-c2ccc(Cl)cc2Cl)c1C(=O)c1ccccc1 [exemplary compound 35]
relative fusion index (FI) (Group 4, 1 μM): 1.27 | relative fusion index (FI) (Group 4, 3 μM): 1.60 | relative fusion index (FI) (Group 4, 10 μM): 1.55

Cc1ccc(-n2cnc(N)c2C(=O)c2cccc(Cl)c2)cc1 [exemplary compound 31]
relative fusion index (FI) (Group 4, 1 μM): 1.12 | relative fusion index (FI) (Group 4, 3 μM): 1.15 | relative fusion index (FI) (Group 4, 10 μM): 1.40

Cc1ccc(-n2cnc(/N=C/N3CCCCC3)c2C(=O)c2ccccc2)cc1 [exemplary compound 4]
relative fusion index (FI) (Group 1, 1 μM): 1.02 | relative fusion index (FI) (Group 1, 3 μM): 1.54 | relative fusion index (FI) (Group 1, 10 μM): 1.51

CC(C)(C)OC(=O)NCCc1ccc(-n2cnc(N)c2C(=O)c2ccccc2)cc1 [exemplary compound 27]
relative fusion index (FI) (Group 4, 1 μM): 0.97 | relative fusion index (FI) (Group 4, 3 μM): 1.67 | relative fusion index (FI) (Group 4, 10 μM): 1.98

CN(C)/C=N/c1ncn(-c2ccc(Br)cc2)c1C(=O)c1ccccc1 [exemplary compound 19]
relative fusion index (FI) (Group 3, 1 μM): 1.25 | relative fusion index (FI) (Group 3, 3 μM): 1.57 | relative fusion index (FI) (Group 3, 10 μM): 1.63

COc1ccc(-n2cnc(N)c2C(=O)c2ccccc2)cc1 [exemplary compound 13]
relative fusion index (FI) (Group 2, 1 μM): 1.22 | relative fusion index (FI) (Group 2, 3 μM): 1.32 | relative fusion index (FI) (Group 2, 10 μM): 1.53

COc1ccc(-n2cnc(/N=C/N(C)C)c2C(=O)c2ccccc2)cc1 [exemplary compound 14]
relative fusion index (FI) (Group 2, 1 μM): 1.18 | relative fusion index (FI) (Group 2, 3 μM): 1.63 | relative fusion index (FI) (Group 2, 10 μM): 1.72

CNc1ncn(-c2ccc(C)cc2)c1C(=O)c1ccccc1 [exemplary compound 12]
relative fusion index (FI) (Group 2, 1 μM): 1.24 | relative fusion index (FI) (Group 2, 3 μM): 1.43 | relative fusion index (FI) (Group 2, 10 μM): 1.36

Nc1ncn(-c2ccc(Br)cc2)c1C(=O)c1ccccc1 [exemplary compound 17]
relative fusion index (FI) (Group 2, 1 μM): 1.51 | relative fusion index (FI) (Group 2, 3 μM): 2.14 | relative fusion index (FI) (Group 2, 10 μM): 2.07

CCOC(=O)c1c(N)ncn1-c1ccc(C)cc1 [exemplary compound 7]
relative fusion index (FI) (Group 1, 1 μM): 1.09 | relative fusion index (FI) (Group 1, 3 μM): 1.55 | relative fusion index (FI) (Group 1, 10 μM): 1.44

Cc1ccccc1-n1cnc(N)c1C(=O)C12CC3CC(CC(C3)C1)C2 [exemplary compound 42]
relative fusion index (FI) (Group 5, 1 μM): 1.08 | relative fusion index (FI) (Group 5, 3 μM): 1.03 | relative fusion index (FI) (Group 5, 10 μM): 1.10

O=C(c1ccccc1)c1c(/N=C/N2CCOCC2)ncn1-c1ccc(Br)cc1 [exemplary compound 20]
relative fusion index (FI) (Group 3, 1 μM): 1.26 | relative fusion index (FI) (Group 3, 3 μM): 1.41 | relative fusion index (FI) (Group 3, 10 μM): 1.60

Cc1cc(C)c(-n2cnc(N)c2C(=O)c2ccccc2)c(C)c1 [exemplary compound 44]
relative fusion index (FI) (Group 5, 1 μM): 1.11 | relative fusion index (FI) (Group 5, 3 μM): 1.08 | relative fusion index (FI) (Group 5, 10 μM): 1.07

Cc1ccc(-n2cnc(N(C)C)c2C(=O)c2ccccc2)cc1 [exemplary compound 18]
relative fusion index (FI) (Group 3, 1 μM): 1.34 | relative fusion index (FI) (Group 3, 3 μM): 1.52 | relative fusion index (FI) (Group 3, 10 μM): 1.85

CC(=O)c1c(N)ncn1-c1ccccc1C [exemplary compound 41]
relative fusion index (FI) (Group 5, 1 μM): 1.14 | relative fusion index (FI) (Group 5, 3 μM): 1.06 | relative fusion index (FI) (Group 5, 10 μM): 1.11

Cc1ccc(-n2c(C)nc(N)c2C(=O)c2ccccc2)cc1 [exemplary compound 16]
relative fusion index (FI) (Group 2, 1 μM): 1.06 | relative fusion index (FI) (Group 2, 3 μM): 1.18 | relative fusion index (FI) (Group 2, 10 μM): 1.60

Cc1ccc(-n2cnc(N)c2C(=O)c2ccccc2)cc1 [exemplary compound 2]
relative fusion index (FI) (Group 1, 1 μM): 1.62 | relative fusion index (FI) (Group 1, 3 μM): 2.26 | relative fusion index (FI) (Group 1, 10 μM): 2.41

NCCc1ccc(-n2cnc(N)c2C(=O)c2ccccc2)cc1 [exemplary compound 28]
relative fusion index (FI) (Group 4, 1 μM): 1.21 | relative fusion index (FI) (Group 4, 3 μM): 1.42 | relative fusion index (FI) (Group 4, 10 μM): 1.64

Cc1ccc(-n2cnc(N)c2C(=O)c2ccccc2)c(C)c1 [exemplary compound 43]
relative fusion index (FI) (Group 5, 1 μM): 1.07 | relative fusion index (FI) (Group 5, 3 μM): 1.11 | relative fusion index (FI) (Group 5, 10 μM): 1.12

Nc1ncn(-c2ccccn2)c1C(=O)c1ccccc1 [exemplary compound 38]
relative fusion index (FI) (Group 5, 1 μM): 1.08 | relative fusion index (FI) (Group 5, 3 μM): 1.12 | relative fusion index (FI) (Group 5, 10 μM): 1.15

Cc1ccc(-n2cnc(N)c2C#N)cc1 [exemplary compound 26]
relative fusion index (FI) (Group 3, 1 μM): 1.01 | relative fusion index (FI) (Group 3, 3 μM): 1.09 | relative fusion index (FI) (Group 3, 10 μM): 1.44

Cc1ccc(-n2cnc(N)c2C(=O)c2ccc(Br)cc2)cc1 [exemplary compound 36]
relative fusion index (FI) (Group 4, 1 μM): 1.12 | relative fusion index (FI) (Group 4, 3 μM): 1.57 | relative fusion index (FI) (Group 4, 10 μM): 1.59

CC(=O)Nc1ncn(-c2ccc(C)cc2)c1C(=O)c1ccccc1 [exemplary compound 5]
relative fusion index (FI) (Group 1, 1 μM): 0.85 | relative fusion index (FI) (Group 1, 3 μM): 1.50 | relative fusion index (FI) (Group 1, 10 μM): 1.57

Cc1ccc(-n2cnc(/N=C/c3ccccc3)c2C(=O)c2ccccc2)cc1 [exemplary compound 6]
relative fusion index (FI) (Group 1, 1 μM): 0.96 | relative fusion index (FI) (Group 1, 3 μM): 1.78 | relative fusion index (FI) (Group 1, 10 μM): 1.42

Cc1ccc(-n2cnc(N)c2C(=O)c2ccc([N+](=O)[O-])cc2)cc1 [exemplary compound 33]
relative fusion index (FI) (Group 4, 1 μM): 0.91 | relative fusion index (FI) (Group 4, 3 μM): 1.20 | relative fusion index (FI) (Group 4, 10 μM): 1.23

Cc1ccc(-n2cnc(N)c2C(=O)c2ccc(Cl)cc2)cc1 [exemplary compound 32]
relative fusion index (FI) (Group 4, 1 μM): 1.16 | relative fusion index (FI) (Group 4, 3 μM): 1.47 | relative fusion index (FI) (Group 4, 10 μM): 1.60

CCOC(=O)c1c(N)ncn1-c1ccccc1C [exemplary compound 40]
relative fusion index (FI) (Group 5, 1 μM): 1.12 | relative fusion index (FI) (Group 5, 3 μM): 1.15 | relative fusion index (FI) (Group 5, 10 μM): 1.10

CC(=O)c1c(/N=C/N(C)C)ncn1-c1ccc(C)cc1 [exemplary compound 25]
relative fusion index (FI) (Group 3, 1 μM): 0.96 | relative fusion index (FI) (Group 3, 3 μM): 1.22 | relative fusion index (FI) (Group 3, 10 μM): 1.44

N#Cc1ccc(-n2cnc(N)c2C(=O)c2ccccc2)cc1 [exemplary compound 39]
relative fusion index (FI) (Group 5, 1 μM): 1.04 | relative fusion index (FI) (Group 5, 3 μM): 1.10 | relative fusion index (FI) (Group 5, 10 μM): 1.09

CCOC(=O)c1c(/N=C/N2CCOCC2)ncn1-c1ccc(C)cc1 [exemplary compound 10]
relative fusion index (FI) (Group 1, 1 μM): 0.80 | relative fusion index (FI) (Group 1, 3 μM): 1.31 | relative fusion index (FI) (Group 1, 10 μM): 0.85

Cc1ccc(-n2cnc(N)c2C(=O)C23CC4CC(CC(C4)C2)C3)cc1 [exemplary compound 37]
relative fusion index (FI) (Group 4, 1 μM): 1.39 | relative fusion index (FI) (Group 4, 3 μM): 1.47 | relative fusion index (FI) (Group 4, 10 μM): 1.77
